Results taken from BindingDB's records for doi:10.1016/0922-4106(95)90014-4 (University of Cagliari, 1995).
Values joined by “and” are separate entries in the source; they are usually repeats but may differ in a detail not shown here. Identical values can stand only once.

Target: Gamma-aminobutyric acid receptor subunit alpha-1 (Rattus norvegicus, UniProt P62813)
Sequence (P62813 whole entry): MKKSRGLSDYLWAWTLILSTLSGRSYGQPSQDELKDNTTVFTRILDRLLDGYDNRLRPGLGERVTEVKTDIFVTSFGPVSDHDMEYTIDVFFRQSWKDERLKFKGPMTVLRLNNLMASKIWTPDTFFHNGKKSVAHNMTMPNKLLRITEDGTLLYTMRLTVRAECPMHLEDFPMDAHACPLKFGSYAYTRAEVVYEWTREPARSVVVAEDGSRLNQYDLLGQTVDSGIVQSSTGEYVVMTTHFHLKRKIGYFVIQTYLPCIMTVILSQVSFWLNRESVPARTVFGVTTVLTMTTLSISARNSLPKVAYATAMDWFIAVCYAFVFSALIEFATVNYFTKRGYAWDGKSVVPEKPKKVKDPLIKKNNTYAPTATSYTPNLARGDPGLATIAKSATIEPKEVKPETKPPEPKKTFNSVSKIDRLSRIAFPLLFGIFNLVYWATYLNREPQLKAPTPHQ

SMILES	Ki
Cc1nnc2ccc(-c3cccc(C(F)(F)F)c3)nn12	1310 nM
CN1C(=O)CN=C(c2ccccc2F)c2cc([N+](=O)[O-])ccc21 [Flunitrazepam]	1.37 nM and 1.52 nM
